From patent US20260224588A1, “BENZODIAZEPINONE-DERIVED INHIBITORS OF EGFR AND HER2” (The Research Foundation for the State University of New York, priority 2023, published 2026)

Columns and labels:
Assay in all cases: KINOMEscan
Format in all cases: binding
Details in all cases: 1 μM of compound 4; read-out: POC
[1] = biological target: MRCKA (Homo sapiens, UniProt Q5VT25)
[2] = biological target: DMPK (Homo sapiens, UniProt Q09013)
[3] = biological target: CSNK1A1 (Homo sapiens, UniProt P48729)
[4] = biological target: CIT (Homo sapiens, UniProt O14578)
[5] = biological target: BLK (Homo sapiens, UniProt P51451)
[6] = biological target: T1, TRPM6 (Homo sapiens, UniProt Q9BX84)
T1 construct: purchased Eurofins DiscoverX Corporation

[7] = biological target: KIT(V559D + V654A) (Homo sapiens, UniProt P10721, V559D/V654A)
[8] = biological target: IRAK3 (Homo sapiens, UniProt Q9Y616)
[9] = biological target: T2, NEK9 (Homo sapiens, UniProt Q8TD19)
T2 construct: purchased Eurofins DiscoverX Corporation (KINOMEscan)

[10] = biological target: CHEK2 (Homo sapiens, UniProt O96017)
Chain of CHEK2 (O96017 whole entry): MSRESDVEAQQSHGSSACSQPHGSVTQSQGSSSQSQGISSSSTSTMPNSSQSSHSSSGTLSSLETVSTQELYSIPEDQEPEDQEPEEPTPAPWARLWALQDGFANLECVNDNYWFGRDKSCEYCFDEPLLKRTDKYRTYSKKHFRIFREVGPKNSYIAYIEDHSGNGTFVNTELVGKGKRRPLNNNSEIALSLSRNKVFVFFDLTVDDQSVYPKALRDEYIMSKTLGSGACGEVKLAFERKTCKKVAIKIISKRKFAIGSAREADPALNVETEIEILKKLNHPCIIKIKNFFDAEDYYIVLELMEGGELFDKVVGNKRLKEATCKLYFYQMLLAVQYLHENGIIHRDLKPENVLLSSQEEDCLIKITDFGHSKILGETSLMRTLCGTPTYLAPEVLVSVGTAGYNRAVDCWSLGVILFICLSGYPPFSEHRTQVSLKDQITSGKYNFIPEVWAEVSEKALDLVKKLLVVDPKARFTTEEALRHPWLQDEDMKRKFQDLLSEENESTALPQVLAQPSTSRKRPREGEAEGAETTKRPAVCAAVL

[11] = biological target: T3, RET(V804M) (Homo sapiens, UniProt P07949, V804M)
T3 construct: purchased Eurofins DiscoverX Corporation (KINOMEscan screening service)
T3 sequence (P07949 29-1114 V804M): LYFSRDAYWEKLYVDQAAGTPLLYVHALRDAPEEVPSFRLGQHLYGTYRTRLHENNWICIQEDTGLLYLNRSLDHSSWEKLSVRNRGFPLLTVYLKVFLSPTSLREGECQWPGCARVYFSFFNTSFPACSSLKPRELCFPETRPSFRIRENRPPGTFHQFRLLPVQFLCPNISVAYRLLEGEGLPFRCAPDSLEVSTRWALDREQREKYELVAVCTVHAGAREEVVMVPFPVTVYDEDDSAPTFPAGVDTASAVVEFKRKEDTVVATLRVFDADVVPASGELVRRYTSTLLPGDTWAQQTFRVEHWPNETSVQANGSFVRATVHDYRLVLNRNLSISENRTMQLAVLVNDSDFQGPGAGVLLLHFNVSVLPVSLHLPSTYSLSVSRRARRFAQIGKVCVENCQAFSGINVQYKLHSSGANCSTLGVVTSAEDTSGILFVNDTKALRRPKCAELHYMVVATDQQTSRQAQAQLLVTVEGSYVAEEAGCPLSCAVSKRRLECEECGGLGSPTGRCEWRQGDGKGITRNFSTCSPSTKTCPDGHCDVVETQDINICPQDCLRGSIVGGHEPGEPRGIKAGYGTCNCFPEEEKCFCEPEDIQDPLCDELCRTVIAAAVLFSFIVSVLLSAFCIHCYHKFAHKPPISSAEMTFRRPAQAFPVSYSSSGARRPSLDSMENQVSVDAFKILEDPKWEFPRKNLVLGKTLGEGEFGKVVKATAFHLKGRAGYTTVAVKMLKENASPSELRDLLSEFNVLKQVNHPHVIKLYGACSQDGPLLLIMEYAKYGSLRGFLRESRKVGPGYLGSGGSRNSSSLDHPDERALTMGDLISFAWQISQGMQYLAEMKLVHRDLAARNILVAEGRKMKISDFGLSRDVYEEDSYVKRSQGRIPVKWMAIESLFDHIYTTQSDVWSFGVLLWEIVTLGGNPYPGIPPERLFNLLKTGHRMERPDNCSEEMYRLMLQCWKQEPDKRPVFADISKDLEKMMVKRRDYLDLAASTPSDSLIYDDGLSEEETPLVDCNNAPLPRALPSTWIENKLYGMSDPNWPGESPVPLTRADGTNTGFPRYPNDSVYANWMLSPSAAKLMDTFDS

[12] = biological target: T4, PDGFRA (Homo sapiens, UniProt P16234)
T4 construct: purchased Eurofins DiscoverX Corporation (KINOMEscan)

[13] = biological target: IKK-epsilon (Homo sapiens, UniProt Q14164)
[14] = biological target: T5, YANK1 (Homo sapiens, UniProt Q8WU08)
T5 construct: purchased Eurofins DiscoverX

[15] = biological target: CSNK1G3 (Homo sapiens, UniProt Q9Y6M4)
[16] = biological target: MEK6 (Homo sapiens, UniProt P52564)
Chain of MEK6 (P52564 whole entry): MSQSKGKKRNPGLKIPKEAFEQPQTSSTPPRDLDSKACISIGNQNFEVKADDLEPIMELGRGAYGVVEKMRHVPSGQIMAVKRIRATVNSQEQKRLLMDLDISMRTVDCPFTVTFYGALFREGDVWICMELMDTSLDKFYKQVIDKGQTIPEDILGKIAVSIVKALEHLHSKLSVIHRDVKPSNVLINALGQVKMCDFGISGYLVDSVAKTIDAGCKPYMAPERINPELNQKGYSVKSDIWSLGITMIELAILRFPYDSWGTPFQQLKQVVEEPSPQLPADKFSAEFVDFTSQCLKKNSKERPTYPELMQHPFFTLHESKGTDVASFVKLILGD

[17] = biological target: LIMK1 (Homo sapiens, UniProt P53667)
[18] = biological target: T6, RPS6KA4(Kin.Dom.2-C-terminal) (Homo sapiens, UniProt O75676)
T6 construct: RPS6KA4(Kin.Dom.2-C-terminal); purchased Eurofins DiscoverX Corporation (KINOMEscan screening service)
T6 sequence (O75676 411-674 limits assumed): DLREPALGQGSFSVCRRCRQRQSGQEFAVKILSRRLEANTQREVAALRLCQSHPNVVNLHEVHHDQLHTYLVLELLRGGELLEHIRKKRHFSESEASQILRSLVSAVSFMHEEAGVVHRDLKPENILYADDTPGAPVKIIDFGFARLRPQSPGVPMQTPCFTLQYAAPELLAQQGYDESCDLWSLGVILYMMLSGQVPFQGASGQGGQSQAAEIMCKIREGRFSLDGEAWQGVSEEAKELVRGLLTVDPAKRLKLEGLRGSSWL

[19] = biological target: ICK (Homo sapiens, UniProt Q9UPZ9)
[20] = biological target: MKK7 (Homo sapiens, UniProt O14733)
Chain of MKK7 (O14733 whole entry): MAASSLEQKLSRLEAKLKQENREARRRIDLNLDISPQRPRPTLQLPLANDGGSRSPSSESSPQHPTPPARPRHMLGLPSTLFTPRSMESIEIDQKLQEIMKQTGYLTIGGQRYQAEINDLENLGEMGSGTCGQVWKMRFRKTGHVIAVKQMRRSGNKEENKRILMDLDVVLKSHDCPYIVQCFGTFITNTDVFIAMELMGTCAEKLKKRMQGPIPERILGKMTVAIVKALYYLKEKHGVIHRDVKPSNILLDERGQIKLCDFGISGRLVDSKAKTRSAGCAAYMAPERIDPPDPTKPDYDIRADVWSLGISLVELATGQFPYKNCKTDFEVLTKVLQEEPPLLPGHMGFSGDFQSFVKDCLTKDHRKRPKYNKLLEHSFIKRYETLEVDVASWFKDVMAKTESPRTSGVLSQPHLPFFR

[21] = biological target: T7, ERBB2 (Homo sapiens, UniProt P04626)
T7 construct: purchased Eurofins DiscoverX Corporation
T7 sequence (P04626 23-1255): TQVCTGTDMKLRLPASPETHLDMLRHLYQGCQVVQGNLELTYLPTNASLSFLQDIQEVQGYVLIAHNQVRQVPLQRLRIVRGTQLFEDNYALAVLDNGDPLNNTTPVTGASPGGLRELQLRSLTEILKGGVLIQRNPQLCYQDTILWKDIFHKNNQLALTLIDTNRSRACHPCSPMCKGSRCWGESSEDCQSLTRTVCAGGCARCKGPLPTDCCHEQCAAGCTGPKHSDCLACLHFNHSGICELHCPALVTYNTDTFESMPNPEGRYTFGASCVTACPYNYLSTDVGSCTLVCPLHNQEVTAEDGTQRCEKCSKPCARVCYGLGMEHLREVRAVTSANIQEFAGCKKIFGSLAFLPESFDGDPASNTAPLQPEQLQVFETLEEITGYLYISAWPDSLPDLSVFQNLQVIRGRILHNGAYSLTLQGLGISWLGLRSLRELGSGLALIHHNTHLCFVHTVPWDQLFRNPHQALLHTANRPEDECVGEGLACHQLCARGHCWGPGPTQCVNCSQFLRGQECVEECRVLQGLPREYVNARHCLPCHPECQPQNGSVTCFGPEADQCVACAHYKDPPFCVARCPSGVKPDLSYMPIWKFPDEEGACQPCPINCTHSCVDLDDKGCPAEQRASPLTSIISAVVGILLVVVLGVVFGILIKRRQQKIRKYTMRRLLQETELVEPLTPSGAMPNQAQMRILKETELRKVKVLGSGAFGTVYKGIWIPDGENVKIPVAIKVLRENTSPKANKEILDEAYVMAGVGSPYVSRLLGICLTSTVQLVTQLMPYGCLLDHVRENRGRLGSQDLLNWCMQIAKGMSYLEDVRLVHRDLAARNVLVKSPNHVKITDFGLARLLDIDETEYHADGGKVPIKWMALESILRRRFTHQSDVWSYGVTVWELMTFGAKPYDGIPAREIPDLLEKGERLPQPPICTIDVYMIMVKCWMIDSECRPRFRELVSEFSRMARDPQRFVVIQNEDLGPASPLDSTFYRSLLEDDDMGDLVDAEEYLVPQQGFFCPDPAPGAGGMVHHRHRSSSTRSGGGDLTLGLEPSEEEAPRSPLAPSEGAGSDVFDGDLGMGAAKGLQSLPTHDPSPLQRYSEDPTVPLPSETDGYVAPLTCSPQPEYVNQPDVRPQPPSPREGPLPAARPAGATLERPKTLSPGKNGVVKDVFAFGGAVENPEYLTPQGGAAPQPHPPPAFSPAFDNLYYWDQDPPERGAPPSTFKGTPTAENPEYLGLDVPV

[22] = biological target: T8, STK36 (Homo sapiens, UniProt Q9NRP7)
T8 construct: purchased Eurofins DiscoverX (KINOMEscan service)

[23] = biological target: T9, ABL1(F317L)-phosphorylated (Homo sapiens, UniProt P00519, F317L)
T9 construct: purchased Eurofins DiscoverX Corporation

[24] = biological target: T10, NLK (Homo sapiens, UniProt Q9UBE8)
T10 construct: purchased Eurofins DiscoverX Corporation (KINOMEscan)

[25] = biological target: T11, EGFR(E746-A750del) (Homo sapiens, UniProt P00533, DEL746-750)
T11 construct: purchased Eurofins DiscoverX (KINOMEscan service)

[26] = biological target: T12, RIOK2 (Homo sapiens, UniProt Q9BVS4)
T12 construct: purchased Eurofins DiscoverX Corporation (KINOMEscan screening service)

[27] = biological target: T13, EGFR(L747-E749del + A750P) (Homo sapiens, UniProt P00533, A750P/DEL747-749)
T13 construct: purchased Eurofins DiscoverX (KINOMEscan service)

[28] = biological target: AURKC (Homo sapiens, UniProt Q9UQB9)
[29] = biological target: T14, EGFR(T790M) (Homo sapiens, UniProt P00533, T790M)
T14 construct: purchased Eurofins DiscoverX (KINOMEscan service)

[30] = biological target: MINK (Homo sapiens, UniProt Q8N4C8)
[31] = biological target: KIT(V559D) (Homo sapiens, UniProt P10721, V559D)
[32] = biological target: PIM3 (Homo sapiens, UniProt Q86V86)
[33] = biological target: BRAF (Homo sapiens, UniProt P15056)
Chain of BRAF (P15056 whole entry): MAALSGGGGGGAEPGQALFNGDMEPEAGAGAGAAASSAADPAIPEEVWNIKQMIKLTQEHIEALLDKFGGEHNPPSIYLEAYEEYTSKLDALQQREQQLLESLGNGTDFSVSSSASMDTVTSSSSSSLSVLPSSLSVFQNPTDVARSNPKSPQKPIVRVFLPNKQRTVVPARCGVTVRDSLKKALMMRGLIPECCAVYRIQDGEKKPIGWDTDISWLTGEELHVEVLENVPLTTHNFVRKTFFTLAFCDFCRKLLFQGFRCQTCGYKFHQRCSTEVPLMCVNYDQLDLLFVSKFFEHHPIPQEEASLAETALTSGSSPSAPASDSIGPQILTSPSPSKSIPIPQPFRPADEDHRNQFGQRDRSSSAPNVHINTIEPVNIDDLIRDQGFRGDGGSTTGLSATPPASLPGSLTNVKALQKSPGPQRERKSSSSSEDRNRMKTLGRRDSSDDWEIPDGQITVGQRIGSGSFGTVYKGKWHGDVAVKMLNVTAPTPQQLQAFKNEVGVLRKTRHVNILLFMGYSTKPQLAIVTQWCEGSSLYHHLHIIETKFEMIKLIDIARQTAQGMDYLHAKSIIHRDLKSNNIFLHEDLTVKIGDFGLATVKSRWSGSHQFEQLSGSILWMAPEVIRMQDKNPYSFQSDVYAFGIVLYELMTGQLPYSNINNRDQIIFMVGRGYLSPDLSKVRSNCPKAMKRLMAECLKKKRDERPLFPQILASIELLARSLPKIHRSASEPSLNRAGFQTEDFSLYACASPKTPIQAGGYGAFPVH

[34] = biological target: T15, ULK3 (Homo sapiens, UniProt Q6PHR2)
T15 construct: purchased Eurofins DiscoverX

[35] = biological target: NEK10 (Homo sapiens, UniProt Q6ZWH5)
[36] = biological target: T16, EPHA1 (Homo sapiens, UniProt P21709)
T16 construct: purchased Eurofins DiscoverX (KINOMEscan service)

[37] = biological target: CSNK2A1 (Homo sapiens, UniProt P68400)
Chain of CSNK2A1 (P68400 whole entry): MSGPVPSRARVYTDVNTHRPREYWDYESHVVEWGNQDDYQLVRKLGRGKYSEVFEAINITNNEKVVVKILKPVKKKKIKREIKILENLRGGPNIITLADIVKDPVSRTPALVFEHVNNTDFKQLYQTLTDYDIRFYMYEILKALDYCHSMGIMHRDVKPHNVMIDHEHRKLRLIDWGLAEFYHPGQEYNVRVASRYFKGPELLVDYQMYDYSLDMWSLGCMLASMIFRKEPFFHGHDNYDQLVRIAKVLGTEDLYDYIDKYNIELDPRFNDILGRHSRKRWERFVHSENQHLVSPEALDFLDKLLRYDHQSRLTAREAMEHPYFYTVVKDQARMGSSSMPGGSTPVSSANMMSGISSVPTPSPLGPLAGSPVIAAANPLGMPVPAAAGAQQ

[38] = biological target: T17, EPHB3 (Homo sapiens, UniProt P54753)
T17 construct: purchased Eurofins DiscoverX (KINOMEscan service)

**Q.** What does the source list for `C=CC(=O)Nc1ccc(OC)c(Nc2cc(-c3[nH]c(CC)nc3-c3cccc(NC(=O)c4cccc5c4NC(=O)c4ccccc4N5)c3)ccn2)c1` [Compound 4, N-(3-(5-(2-((5-Acrylamido-2-methoxyphenyl)amino)pyridin-4-yl)-2-ethyl-1H-imidazol-4-yl)phenyl)-11-oxo-10,11-dihydro-5H-dibenzo[b,e][1,4]diazepine-9-carboxamide]?
**A.** remaining binding at 1 µM [1]: 0%; remaining binding at 1 µM [2]: 45%; remaining binding at 1 µM [3]: 56%; remaining binding at 1 µM [4]: 6.3%; remaining binding at 1 µM [5]: 1.7%; remaining binding at 1 µM [6]: 99%; remaining binding at 1 µM [7]: 93%; remaining binding at 1 µM [8]: 39%; remaining binding at 1 µM [9]: 83%; remaining binding at 1 µM [10]: 87%; remaining binding at 1 µM [11]: 91%; remaining binding at 1 µM [12]: 69%; remaining binding at 1 µM [13]: 100%; remaining binding at 1 µM [14]: 84%; remaining binding at 1 µM [15]: 98%; remaining binding at 1 µM [16]: 73%; remaining binding at 1 µM [17]: 79%; remaining binding at 1 µM [18]: 75%; remaining binding at 1 µM [19]: 100%; remaining binding at 1 µM [20]: 31%; remaining binding at 1 µM [21]: 18%; remaining binding at 1 µM [22]: 30%; remaining binding at 1 µM [23]: 85%; remaining binding at 1 µM [24]: 48%; remaining binding at 1 µM [25]: 13%; remaining binding at 1 µM [26]: 83%; remaining binding at 1 µM [27]: 8%; remaining binding at 1 µM [28]: 100%; remaining binding at 1 µM [29]: 12%; remaining binding at 1 µM [30]: 10%; remaining binding at 1 µM [31]: 100%; remaining binding at 1 µM [32]: 100%; remaining binding at 1 µM [33]: 90%; remaining binding at 1 µM [34]: 100%; remaining binding at 1 µM [35]: 86%; remaining binding at 1 µM [36]: 100%; remaining binding at 1 µM [37]: 100%; remaining binding at 1 µM [38]: 100%
